Experimental data published in PMC2952919, “Error-Prone Translesion DNA Synthesis by Escherichia coli DNA Polymerase IV (DinB) on Templates Containing 1,2-dihydro-2-oxoadenine” (Journal of Nucleic Acids, 2010).

Biological target: T1, Pol IV (DinB; HT-dinB) (Escherichia coli, UniProt Q47155)
T1 construct: full-length DinB with His tag (plasmid pET16B-DinB), expressed in E. coli BL21(DE3)/pLysS; tag kept
T1 sequence (Q47155 1-351): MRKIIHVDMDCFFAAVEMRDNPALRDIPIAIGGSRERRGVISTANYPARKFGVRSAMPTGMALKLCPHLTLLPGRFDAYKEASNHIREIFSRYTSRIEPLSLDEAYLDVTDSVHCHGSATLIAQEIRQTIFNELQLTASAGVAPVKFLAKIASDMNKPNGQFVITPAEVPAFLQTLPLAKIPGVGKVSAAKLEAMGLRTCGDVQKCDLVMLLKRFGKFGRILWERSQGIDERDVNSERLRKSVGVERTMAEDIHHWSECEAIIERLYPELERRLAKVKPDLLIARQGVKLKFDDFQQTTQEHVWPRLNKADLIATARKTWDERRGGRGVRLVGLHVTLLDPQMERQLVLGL
Assay: primer extension, […]-labelled primer, gel imaging
Format: biochemical
Conditions: insertion opposite 2-oxodA (primer 3/template 2, 50 fmol in 10 μl); Pol IV 50 nM; 20°C, 60 min; pH 7.4, 7.5 mM MgCl2; dNTP 0.02~500 μM; printed Km unit is implausible (a rate unit)

SMILES	Km
Cc1cn([C@H]2C[C@H](O)[C@@H](COP(=O)(O)OP(=O)(O)OP(=O)(O)O)O2)c(=O)[nH]c1=O [dTTP]	25.6 fmol/mL/min
Nc1ccn([C@H]2C[C@H](O)[C@@H](COP(=O)(O)OP(=O)(O)OP(=O)(O)O)O2)c(=O)n1 [dCTP]	8.5 fmol/mL/min
